Data published in US6720346B2, “Thiazole benzamide derivatives and pharmaceutical compositions for inhibiting cell proliferation” (Agouron Pharmaceuticals, Inc., priority 2001, dated 2004).
Counter-ions that a name gives are not always drawn.

Key:
CDK2/cyclin A = target: T1, CDK2/cyclin A (Homo sapiens, UniProt P24941); test: Inhibition of CDK2/cyclin A retinoblastoma kinase activity (Ki; % inhibition); assay type: biochemical; conditions: for Ki: apparent Ki, CDK2/cyclin A, Rb substrate
T1 construct: made in house; host or cells: CDK2: insect cells (baculovirus); cyclin A: E. coli
How it was run: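 Apparent Ki values came from fitting concentration-dependent activity data to competitive (or competitive tight-binding) models, and % inhibition from single 30 nM screens of library compounds. Activity was measured as ³²P/³³P incorporation from 25 μM ATP into an Rb substrate by 10 or 19 nM CDK2/delta cyclin A at 30 °C over 60–75 min, pH 7.4.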

human CDK4/cyclin D3 = target: T2, human CDK4/cyclin D3 (Homo sapiens, UniProt P11802); test: Inhibition of CDK4/cyclin D retinoblastoma kinase activity (Ki; % inhibition); assay type: biochemical; conditions: for Ki: apparent Ki, CDK4/cyclin D3, Rb substrate
T2 construct: made in house; host or cells: insect cells co-infected with baculovirus vectors
T2 sequence (P11802 whole entry): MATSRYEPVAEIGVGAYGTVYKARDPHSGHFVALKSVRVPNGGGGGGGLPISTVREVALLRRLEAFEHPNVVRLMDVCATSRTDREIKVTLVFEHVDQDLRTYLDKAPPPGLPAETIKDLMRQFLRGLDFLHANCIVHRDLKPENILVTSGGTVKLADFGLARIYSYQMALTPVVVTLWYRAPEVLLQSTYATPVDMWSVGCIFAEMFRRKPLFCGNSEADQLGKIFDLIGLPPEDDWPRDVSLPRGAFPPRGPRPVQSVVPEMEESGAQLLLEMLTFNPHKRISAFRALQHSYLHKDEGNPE
T2 sequence (P30281 1-264 partner limits assumed): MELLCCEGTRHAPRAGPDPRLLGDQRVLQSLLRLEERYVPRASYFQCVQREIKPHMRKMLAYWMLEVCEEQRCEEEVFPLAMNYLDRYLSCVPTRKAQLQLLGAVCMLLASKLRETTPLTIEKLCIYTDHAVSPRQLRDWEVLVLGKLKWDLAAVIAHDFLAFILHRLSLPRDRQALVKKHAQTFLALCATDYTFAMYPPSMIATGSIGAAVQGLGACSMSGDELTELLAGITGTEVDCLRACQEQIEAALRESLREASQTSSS
How it was run: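 Radiometric filter-binding read-out: Rb residues 386-928 phosphorylated by 5 nM CDK4/cyclin D3(1-264) from baculovirus-infected insect cells, 25 μM ATP, HEPES pH 7.4, 30 °C. Run 20 min, or 60 min for tight-binding inhibitors. Screening at 30 nM theoretical compound; apparent Ki by competitive-inhibition fitting.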

HCT-116 cell line = test: Inhibition of cell growth, MTT tetrazolium salt assay; assay type: cell-based; conditions: for IC50: Homo sapiens, HCT-116, 120 h, MTT, three to five days
How it was run: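 HCT-116 cells in McCoy's 5A were dosed 4 h after plating with compounds in 0.5% DMSO and grown 3–5 days at 37 °C. Then 0.2 mg/mL MTT was added for 4 h and formazan absorbance read at 540 nm. IC50/IC90 came from semi-log plots against DMSO-only controls.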

[1] = HCT-116 cells, 0.25 μM compound

Row | SMILES | CDK2 % Inhibition at 0.03 μM (CDK2/cyclin A; at 0.03 μM) | CDK4 % Inhibition at 0.03 μM (human CDK4/cyclin D3; at 0.03 μM) | HCT-116 % Inhibition at 0.1 μM (HCT-116 cell line; HCT-116, at 0.1 μM) | HCT-116 % Inhibition at 0.25 μM (HCT-116 cell line; HCT-116, at 0.25 μM) | other results
1 | COc1ccccc1CNC(=O)c1ccc(Nc2nc(N)c(C(=O)c3c(F)cccc3F)s2)cc1 [Example G170] | 26% | 32% | 44% | 78% | –
2 | Nc1nc(Nc2ccc(C(=O)NCc3cccc(Cl)c3)cc2)sc1C(=O)c1c(F)cccc1F [Example G324] | – | – | – | – | CDK2 % Inhibition at 0.03 μM (CDK2/cyclin A; 0.03 μM compound): 28%; CDK4 % Inhibition at 0.03 μM (human CDK4/cyclin D3; 0.03 μM compound): 26%; HCT-116 % Inhibition at 0.1 μM (HCT-116 cell line; HCT-116 cells, 0.1 μM compound): 5%; HCT-116 % Inhibition at 0.25 μM (HCT-116 cell line; [1]): 60%
3 | COc1ccc(NC(=O)c2ccc(Nc3nc(N)c(C(=O)c4c(F)cccc4F)s3)cc2)cc1OC [Example G212] | – | – | – | – | CDK2 % Inhibition at 0.03 μM (CDK2/cyclin A; 0.03 μM compound): 16%; CDK4 % Inhibition at 0.03 μM (human CDK4/cyclin D3; 0.03 μM compound): 20%; HCT-116 % Inhibition at 0.1 μM (HCT-116 cell line; HCT-116 cells, 0.1 μM compound): 17%; HCT-116 % Inhibition at 0.25 μM (HCT-116 cell line; [1]): 53%
4 | CN1CCC[C@@H]1CNC(=O)c1ccc(Nc2nc(N)c(C(=O)c3c(F)cccc3F)s2)cc1 [Example A34, 4-[4-Amino-5-(2,6-difluoro-benzoyl)-thiazol-2-ylamino]-N-(1-methyl-pyrrolidin-2R-ylmethyl)-benzamide] | – | – | – | – | Ki (CDK2/cyclin A): 99 nM; Ki (human CDK4/cyclin D3): 10 nM; IC50 (HCT-116 cell line): 140 nM
5 | CCC(C)CN(CCO)C(=O)c1ccc(Nc2nc(N)c(C(=O)c3c(F)cccc3F)s2)cc1 (stereo not drawn) [Example G299] | – | – | – | – | CDK2 % Inhibition at 0.03 μM (CDK2/cyclin A; 0.03 μM compound): −11%; CDK4 % Inhibition at 0.03 μM (human CDK4/cyclin D3; 0.03 μM compound): −7%; HCT-116 % Inhibition at 0.1 μM (HCT-116 cell line; HCT-116 cells, 0.1 μM compound): 10%; HCT-116 % Inhibition at 0.25 μM (HCT-116 cell line; [1]): 49%
6 | Nc1nc(Nc2ccc(C(=O)NCCSCCO)cc2)sc1C(=O)c1c(F)cccc1F [Example G366] | – | – | – | – | CDK2 % Inhibition at 0.03 μM (CDK2/cyclin A; 0.03 μM compound): 1%; CDK4 % Inhibition at 0.03 μM (human CDK4/cyclin D3; 0.03 μM compound): 8%; HCT-116 % Inhibition at 0.1 μM (HCT-116 cell line; HCT-116 cells, 0.1 μM compound): 26%; HCT-116 % Inhibition at 0.25 μM (HCT-116 cell line; [1]): 55%
7 | CCCCN(CC)CCNC(=O)c1ccc(Nc2nc(N)c(C(=O)c3c(F)cccc3F)s2)cc1 [Example G331] | – | – | – | – | CDK2 % Inhibition at 0.03 μM (CDK2/cyclin A; 0.03 μM compound): 1%; CDK4 % Inhibition at 0.03 μM (human CDK4/cyclin D3; 0.03 μM compound): 37%; HCT-116 % Inhibition at 0.1 μM (HCT-116 cell line; HCT-116 cells, 0.1 μM compound): 54%; HCT-116 % Inhibition at 0.25 μM (HCT-116 cell line; [1]): 93%
8 | CCN(CC)CCCNC(=O)c1ccc(Nc2nc(N)c(C(=O)c3c(F)cccc3F)s2)cc1 [Example G127] | 10% | 29% | 0% | 61% | –
9 | Nc1nc(Nc2ccc(C(=O)Nc3ccc(O)cc3)cc2)sc1C(=O)c1c(F)cccc1F [Example G74] | 23% | 18% | – | 78% | –
10 | COCCN(CCOC)C(=O)c1ccc(Nc2nc(N)c(C(=O)c3c(F)cccc3F)s2)cc1 [Example G36] | −4% | 6% | – | 62% | –
11 | Nc1nc(Nc2ccc(C(=O)NCc3ccc(F)cc3Cl)cc2)sc1C(=O)c1c(F)cccc1F [Example G278] | – | – | – | – | CDK2 % Inhibition at 0.03 μM (CDK2/cyclin A; 0.03 μM compound): 25%; CDK4 % Inhibition at 0.03 μM (human CDK4/cyclin D3; 0.03 μM compound): 27%; HCT-116 % Inhibition at 0.1 μM (HCT-116 cell line; HCT-116 cells, 0.1 μM compound): 6%; HCT-116 % Inhibition at 0.25 μM (HCT-116 cell line; [1]): 76%
12 | COCCN1CCN(C(=O)c2ccc(Nc3nc(N)c(C(=O)c4c(F)cccc4F)s3)cc2)CC1 [Example G362] | – | – | – | – | CDK2 % Inhibition at 0.03 μM (CDK2/cyclin A; 0.03 μM compound): 12%; CDK4 % Inhibition at 0.03 μM (human CDK4/cyclin D3; 0.03 μM compound): 6%; HCT-116 % Inhibition at 0.1 μM (HCT-116 cell line; HCT-116 cells, 0.1 μM compound): 9%; HCT-116 % Inhibition at 0.25 μM (HCT-116 cell line; [1]): 57%
13 | Nc1nc(Nc2ccc(C(=O)NC3CCS(=O)(=O)C3)cc2)sc1C(=O)c1c(F)cccc1F (stereo not drawn) [Example G120] | 14% | 23% | 0% | 54% | –
14 | NC(=O)c1cccc(NC(=O)c2ccc(Nc3nc(N)c(C(=O)c4c(F)cccc4F)s3)cc2)c1 [Example G6] | −1% | 10% | – | 47% | –
15 | CCCC(C)NC(=O)c1ccc(Nc2nc(N)c(C(=O)c3c(F)cccc3F)s2)cc1 (stereo not drawn) [Example G163] | 16% | 21% | 0% | 67% | –
16 | Nc1nc(Nc2ccc(C(=O)NCc3nccs3)cc2)sc1C(=O)c1c(F)cccc1F [Example A49, 4-[4-Amino-5-(2,6-difluoro-benzoyl)-thiazol-2-ylamino]-N-(thiazol-2-yl-methyl)-benzamide Hydrochloride] | – | – | – | – | Ki (CDK2/cyclin A): 260 nM; Ki (human CDK4/cyclin D3): 11 nM; IC50 (HCT-116 cell line): 320 nM
17 | CN(C)CCNC(=O)c1ccc(Nc2nc(N)c(C(=O)c3c(Cl)cccc3Cl)s2)cc1 [Example B4, 4-[4-Amino-5-(2,6-dichloro-benzoyl)-thiazol-2-ylamino]-N-(2-dimethylamino-ethyl)-benzamide] | – | – | – | – | Ki (CDK2/cyclin A): 220 nM; Ki (human CDK4/cyclin D3): 8 nM; IC50 (HCT-116 cell line): 520 nM
18 | Nc1nc(Nc2ccc(C(=O)Nc3ccc4nc[nH]c4c3)cc2)sc1C(=O)c1c(F)cccc1F [Example G100] | 13% | 22% | 27% | 89% | –
19 | CN(C)CCCNC(=O)c1ccc(Nc2nc(N)c(C(=O)c3c(F)cccc3F)s2)cc1 [Example G119] | 11% | 31% | 0% | 64% | –
20 | CN1CCC[C@H]1CNC(=O)c1ccc(Nc2nc(N)c(C(=O)c3ccccc3S(C)(=O)=O)s2)cc1 [Example A73, 4-{4-Amino-5-(2-methanesulfonyl-benzoyl)-thiazol-2-ylamino}-N-(1-methyl-pyrrolidin-2S-ylmethyl)-benzamide Trifluoroacetic Acid Salt] | – | – | – | – | Ki (CDK2/cyclin A): 1200 nM; Ki (human CDK4/cyclin D3): 36000 nM; IC50 (HCT-116 cell line): > 5000 nM
21 | CCCN(CC1CC1)C(=O)c1ccc(Nc2nc(N)c(C(=O)c3c(F)cccc3F)s2)cc1 [Example G1] | −3% | −10% | – | 56% | –
22 | Nc1nc(Nc2ccc(C(=O)Nc3ccon3)cc2)sc1C(=O)c1c(F)cccc1F [Example G213] | – | – | – | – | CDK2 % Inhibition at 0.03 μM (CDK2/cyclin A; 0.03 μM compound): −1%; CDK4 % Inhibition at 0.03 μM (human CDK4/cyclin D3; 0.03 μM compound): 9%; HCT-116 % Inhibition at 0.1 μM (HCT-116 cell line; HCT-116 cells, 0.1 μM compound): 16%; HCT-116 % Inhibition at 0.25 μM (HCT-116 cell line; [1]): 49%
23 | CC(CCCC(C)(C)O)NC(=O)c1ccc(Nc2nc(N)c(C(=O)c3c(F)cccc3F)s2)cc1 (stereo not drawn) [Example G237] | – | – | – | – | CDK2 % Inhibition at 0.03 μM (CDK2/cyclin A; 0.03 μM compound): 9%; CDK4 % Inhibition at 0.03 μM (human CDK4/cyclin D3; 0.03 μM compound): 12%; HCT-116 % Inhibition at 0.1 μM (HCT-116 cell line; HCT-116 cells, 0.1 μM compound): 20%; HCT-116 % Inhibition at 0.25 μM (HCT-116 cell line; [1]): 49%
24 | C=CCN1CCN(C(=O)c2ccc(Nc3nc(N)c(C(=O)c4c(F)cccc4F)s3)cc2)CC1 [Example G21] | 3% | 14% | – | 46% | –
25 | NC(=O)C1CCN(C(=O)c2ccc(Nc3nc(N)c(C(=O)c4c(F)cccc4F)s3)cc2)CC1 [Example G43] | 5% | 12% | – | 62% | –
26 | COC(CNC(=O)c1ccc(Nc2nc(N)c(C(=O)c3c(F)cccc3F)s2)cc1)OC [Example G97] | 2% | 11% | 28% | 56% | –
27 | Nc1nc(Nc2ccc(C(=O)Nc3cccc(Cl)c3)cc2)sc1C(=O)c1c(F)cccc1F [Example G76] | 7% | 7% | – | 61% | –

Now from value to compound, other results behind:

Row | CDK2 % Inhibition at 0.03 μM (CDK2/cyclin A; at 0.03 μM) | CDK4 % Inhibition at 0.03 μM (human CDK4/cyclin D3; at 0.03 μM) | SMILES | HCT-116 % Inhibition at 0.1 μM (HCT-116 cell line; HCT-116, at 0.1 μM) | HCT-116 % Inhibition at 0.25 μM (HCT-116 cell line; HCT-116, at 0.25 μM) | other results
28 | 7% | 3% | CC(C)c1ccc(NC(=O)c2ccc(Nc3nc(N)c(C(=O)c4c(F)cccc4F)s3)cc2)cc1 [Example G69] | – | 70% | –
29 | 17% | 6% | Nc1nc(Nc2ccc(C(=O)Nc3ccccc3CO)cc2)sc1C(=O)c1c(F)cccc1F [Example G53] | – | 89% | –
30 | −11% | 13% | CC1CC(NC(=O)c2ccc(Nc3nc(N)c(C(=O)c4c(F)cccc4F)s3)cc2)CC(C)(C)C1 (stereo not drawn) [Example G112] | 6% | 57% | –
31 | −4% | 11% | CN(C)CCCCNC(=O)c1ccc(Nc2nc(N)c(C(=O)c3c(F)cccc3F)s2)cc1 [Example G93] | 26% | 58% | –
32 | 1% | 22% | CCCOCCNC(=O)c1ccc(Nc2nc(N)c(C(=O)c3c(F)cccc3F)s2)cc1 [Example G165] | 0% | 61% | –
33 | 22% | 40% | Nc1nc(Nc2ccc(C(=O)NCCCN3CCCC3)cc2)sc1C(=O)c1c(F)cccc1F [Example G158] | 0% | 73% | –
34 | 10% | 18% | CC(=O)c1cccc(NC(=O)c2ccc(Nc3nc(N)c(C(=O)c4c(F)cccc4F)s3)cc2)c1 [Example G189] | 13% | 56% | –
